Earlier results as cited in PubChem BioAssay AID1259409 (Chemical Carcinogenesis Research Information System (CCRIS), 2018).

Test system: rodent chemically induced tumor inhibition, incidence and multiplicity
Assay: CCRIS tumor inhibitor studies
Conditions: Carcinogen: 7,12-DIMETHYLBENZ[A]ANTHRACENE, 57-97-6, Dose [Inhibitor]: 0, Route [Inhibitor]: IN UTERO, ORAL, Species: RAT, Strain/Sex: SD/FEMALE, Target Tissue: Type of Lesion: MAMMARY GLAND: TUMOR, Dose [Carcinogen]: 20 MG/KG BW ADMINISTERED TO 50-DAY OLD OFFSPRING

Clc1ccc(-c2cc(Cl)c(Cl)c(Cl)c2)cc1Cl
tumour outcome (control, treated, inhibition, significance) (2.5 NG/KG BW ADMINISTERED INTRAGASTRICALLY TO MOTHERS ON DAYS 13 TO 19 POST-CONCEPTION (STUDY DURATION: 178 D)): 93%, 93%, 0%, not significant
tumour outcome (control, treated, inhibition, significance) (7.5 UG/KG BW ADMINISTERED INTRAGASTRICALLY TO MOTHERS ON DAYS 13 TO 19 POST-CONCEPTION (STUDY DURATION: 178 D)): 93%, 78%, 17%, p<0.05
tumour outcome (control, treated, inhibition, significance) (250 NG/KG BW ADMINISTERED INTRAGASTRICALLY TO MOTHERS ON DAYS 13 TO 19 POST-CONCEPTION (STUDY DURATION: 178 D)): 93%, 96%, -3%, not significant
